{"source": "patent US10786468B2", "about": "“Deacetylnemorone abietane diterpenoids for use in cancer treatment” (University of South Carolina, priority 2017, dated 2020)", "key": {"[1]": {"system": "MG-63 (osteosarcoma) cells", "assay": "MTS assay, MG-63", "format": "cell-based", "conditions": "MG-63, 48 and 72 hours of exposure, FIG. 9", "source_text": "(§1) The human cell lines used for MTS assay screening included MG-63 (osteosarcoma), SK-OV-3 (ovarian adenocarcinoma), MDA-MB-231 (breast adenocarcinoma derived from a metastatic site), HCT 116 (colorectal carcinoma), HCT 116/200 (an FdUrd resistant subclone of HCT 116 cells), A2780ADR (a doxorubicin resistant subclone of the ovarian carcinoma A2780), and HUVEC (normal human umbilical vein endothelial cells). All cells were stored in liquid nitrogen until use. MG-63, SK-OV-3, MDA-MB-231, and HCT 116 cell lines were all obtained from ATCC. A2780ADR cells were obtained from Sigma-Aldrich. HCT 116/200 cells were obtained from Dr. Franklin G. Berger from the Center for Colon Cancer Research. HUVEC cells were obtained from Lonza. MG-63 cells were maintained in MEM medium (Corning) supplemented with 10% Fetal Bovine Essence (VWR) and 1% penicillin/streptomycin solution (Corning). […]\n(§2) Cells were first grown to approximately 80% confluency within […] tissue culture flasks (VWR). […] Cells were counted using a hemocytometer and their viability was confirmed using trypan blue (Gibco). […]\n(§3) After seeding, the cells were incubated for 24 hours at 37° C. and 5% CO2 to allow for cell attachment and renewal of the exponential growth phase. […] The cells were incubated for 2 hours, and the absorbance of each well at 490 nm was measured using a Spectramax 190 microplate reader."}, "[2]": {"system": "SK-OV-3 (ovarian adenocarcinoma) cells", "assay": "MTS assay, SK-OV-3", "format": "cell-based", "conditions": "SK-OV-3, 48 and 72 hours of exposure, FIG. 10", "source_text": "as §1, §2, §3"}, "[3]": {"system": "MDA-MB-231 (breast adenocarcinoma) cells", "assay": "MTS assay, MDA-MB-231", "format": "cell-based", "source_text": "as §1, §2, §3"}, "[4]": {"system": "HCT 116 (colorectal carcinoma) cells", "assay": "MTS assay, HCT 116", "format": "cell-based", "source_text": "as §1, §2, §3"}, "[5]": {"system": "HCT 116/200 (FdUrd resistant subclone of HCT 116) cells", "assay": "MTS assay, HCT 116/200", "format": "cell-based", "source_text": "as §1, §2, §3"}, "[6]": {"system": "A2780ADR (doxorubicin resistant subclone of ovarian carcinoma A2780) cells", "assay": "MTS assay, A2780ADR", "format": "cell-based", "conditions": "48 and 72 hours of exposure, FIG. 14", "source_text": "as §1, §2, §3"}, "[7]": {"system": "59 cell lines of the NCI-60 panel", "assay": "NCI-60 one-dose cytotoxicity screen, 59 cell lines", "format": "cell-based", "conditions": "10 μM", "experimental": "(§4) One dose cytotoxicity screening was performed by the NCI-60 screening program of the National Institutes of Health (NIH), which is known in the art and available from the NIH. The NCI-60 panel is a collection of cancer cell lines, from various diverse tumors, which was developed in the 1980s by the National Cancer Institute to aid screening efforts for cytotoxic or cytostatic compounds.\n(§5) In these screens 59 cell lines were utilized to determine the cytotoxic effect of the deacetylnemorone. […]\n(§6) A control for each cell type was also simultaneously created, which was treated with 100 μL of culture media without deacetylnemorone. […] The bound stain was then dissolved in 10 mM trizma base and the absorbance was read using an automated plate reader at 515 nm.\n(§7) Suspension cells were treated in the same fashion with the exception that the cells were fixed once they had settled at the bottom of the wells using 50 μL of 80% TCA. The absorbance of each well was then converted to growth percent using equation 1 (below) where Ti is the average absorbance of the samples treated with a certain concentration of the compound of this invention, Tz represents the average absorbance of the samples fixed at the time the compound of interest was added to the experimental groups, and C is the average absorbance of the media treated control. […]"}, "melanoma cell lines": {"system": "melanoma cell lines", "assay": "NCI-60 one-dose screen, melanoma cell lines", "format": "cell-based", "conditions": "10 μM, 48 hours; in 6 out of 9 melanoma cell lines", "experimental": "as §4, §5, §6, §7"}, "melanoma line SK-MEL-5": {"system": "melanoma line SK-MEL-5", "assay": "NCI-60 one-dose screen, SK-MEL-5", "format": "cell-based", "conditions": "10 μM, 48 hours", "experimental": "as §4, §5, §6, §7"}, "SKMEL5 melanoma cells": {"system": "SKMEL5 melanoma cells", "assay": "Cell cycle analysis (PI staining, flow cytometry)", "format": "cell-based", "experimental": "The effect of the deacetylnemorone on the cell cycle of SKMEL5 melanoma cells was determined using a PI staining assay. SKMEL5 cells were maintained in RPMI 1640 media supplemented with 10% FBS and 2 mM L-glutamine and incubated at 37° C. and 5% CO2. The cells were seeded in 6 well plates at a density of 300,000 cells per well. After 24 hours, the media was removed and replaced with either fresh media (control) or with media supplemented with 17.3 μM of the deacetylnemorone of FIG. 1. The cells were incubated with this treatment for 72 hours total. At 6, 12, 24, 48, and 72 hours, the cells from two wells each of the control of the treated group were trypsinized, collected in centrifuge tubes, and centrifuged at 2500 rpm for 5 minutes. The supernatant was removed, and the pellet was washed with PBS and centrifuged 2 times. The pellet was then suspended in 500 μL PBS and added 3 mL of 70% ethanol dropwise while vortexing. This mixture was then incubated at 4° C. for 24 hours. Next, the mixture was centrifuged, the supernatant was removed and the pellet was suspended in PBS and stored at 4° C. until all the samples were collected. […]"}, "[8]": {"system": "MDA-MB-231 breast cancer cells", "assay": "In vitro invasion assay (cell-free gap)", "format": "cell-based, human", "experimental": "Cell migration of MDA-MB-231 breast cancer cells was assessed through making a cell-free gap with a Culture Insert 2 well 24 (Ibidi), consisting of two wells that were separated by a wall. A total of 70 μl of cell suspension comprising of 35×10^3 cells was added to each well. Cells were given 24 hours to attach and reach confluency. Culture inserts were then removed and cell debris was washed with PBS. Fresh culture media supplemented with different concentration of the compound of interest was added to the wells and the cells were incubated at 37° C. and 5% CO2 for 26 hours. Images were taken 0, 6, 20, and 26 hours after compound addition using a phase contrast Nikon Eclipse Ti-E inverted microscope. Quantification of invasion was performed by measuring the gap distance for three repetitions and using the following formula,\n[formula] where Wn is the width of gap after incubation, and W0 is the initial width right after forming the gap. Tube Formation Assay"}, "HUVEC endothelial cells": {"system": "HUVEC endothelial cells", "assay": "Tube formation assay on growth factor reduced Matrigel", "format": "cell-based, human", "conditions": "8 hours of incubation", "experimental": "Growth factor reduced BD Matrigel (Corning), stored long-term at −20° C., was thawed on ice overnight in a 4° C. refrigerator prior to use. The following day, 50 μL of the thawed Matrigel was added to each well of a pre-chilled 96-well plate and incubated at 37° C. and 5% CO2 for approximately 30 minutes to allow the matrix to form a gel. Next, 100 μL of a cell suspension containing 20,000 HUVEC cells in cell culture media with various concentrations of deacetylnemorone was added to each well. The control consisted of HUVEC cells suspended in endothelial growth media alone. After 8 hours of incubation at 37° C. and 5% CO2, the number of tubes formed between the endothelial cells were quantified using an inverted microscope (Invitrogen EVOS FL Auto at 4× magnification)."}}, "data": [{"substance": "deacetylnemorone", "values": [{"measurement": "cytotoxicity (percent viability, MTS)", "setting": "[1]", "value": "significant cytotoxic properties"}, {"measurement": "cytotoxicity (percent viability, MTS)", "setting": "[2]", "value": "significant cytotoxic properties"}, {"measurement": "cytotoxicity (percent viability, MTS)", "setting": "[3]; MDA-MB-231, 48 and 72 hours of exposure, FIG. 11", "value": "significant cytotoxic properties"}, {"measurement": "lowest concentration at which cell death was indicated (MTS)", "setting": "[3]; breast cancer", "value": 10, "unit": "µg/mL"}, {"measurement": "cytotoxicity (percent viability, MTS)", "setting": "[4]; HCT-116, 48 and 72 hours of exposure, FIG. 12", "value": "significant cytotoxic properties"}, {"measurement": "lowest concentration at which cell death was indicated (MTS)", "setting": "[4]; colon cancer", "value": 10, "unit": "µg/mL"}, {"measurement": "cytotoxicity (percent viability, MTS)", "setting": "[5]; HCT 116/200, 48 and 72 hours of exposure, FIG. 13", "value": "significant cytotoxic properties"}, {"measurement": "cytotoxic effect in combination with FdUrd (percent viability, cell number)", "setting": "[5]; HCT 116/200, 48 hour exposure, combination with FdUrd, FIG. 16 and 17", "value": "dose dependent, synergistic cytotoxic effect"}, {"measurement": "cytotoxicity (percent viability, MTS)", "setting": "[6]", "value": "significant cytotoxic properties"}, {"measurement": "number of cell lines whose growth was inhibited", "setting": "[7]; 48 hours, 59 cell lines screened", "value": "55 of the 59"}, {"measurement": "average inhibition of percent growth across all 59 cell lines", "setting": "[7]; after 48 hours", "value": 47, "unit": "%"}, {"measurement": "growth inhibition of melanoma cell lines", "setting": "melanoma cell lines", "value": "more than 70%"}, {"measurement": "percent growth", "setting": "melanoma line SK-MEL-5", "value": "negative percent growth"}, {"measurement": "percent of cells in S phase", "setting": "SKMEL5 melanoma cells; SKMEL5, after 24 hours, 17.3 μM (method) / 15 μM (figure legend)", "value": "increase in the percent of cells in S phase"}, {"measurement": "sub-G1 population", "setting": "SKMEL5 melanoma cells; SKMEL5, up to 72 hours", "value": "low sub-G1 population"}, {"measurement": "invasion of breast cancer cells", "setting": "[8]; 1 μg/mL, after 26 hours", "value": "significantly inhibited"}, {"measurement": "invasion of breast cancer cells", "setting": "[8]; 10 μg/mL, after 26 hours", "value": "significantly inhibited"}, {"measurement": "invasion of breast cancer cells", "setting": "[8]; after 20 hours of incubation", "value": "significantly inhibited"}, {"measurement": "tube formation between HUVEC cells", "setting": "HUVEC endothelial cells; 0.1 μg/mL", "value": "inhibit tube formation"}, {"measurement": "tube formation between HUVEC cells", "setting": "HUVEC endothelial cells; 10 μg/mL", "value": "inhibit tube formation"}]}]}
